Test [1] deals with pAKT(5473) (phosphorylated at serine 473), PC3 cells. The test can be described thus: In-cell Western assay, pAKT(5473) in PC3 cells. Format: cell-based. As to conditions: Homo sapiens, PC-3, In-cell Western, read-out: pAkt-S473. The procedure:
(§1) Cells from human prostate cancer cell line PC3 (American Type Culture Collection (ATCC), Manassas, Va. 20108 USA) were seeded at an optimal density of 22,000 cell/well in 96-well plates containing Ham's F12K medium (90 μL) and incubated overnight. The compound dilutions were carried out in 100% DMSO followed by a dilution in the medium. Test compounds were added in serial dilutions to the wells and incubated for 2 h. The cells were washed and fixed with 4% paraformaldehyde. After incubation at room temperature for 1 h in the dark, blocking was done for 2 h at room temperature. Primary antibodies for phosphorylated (p) AKT(5473) (phosphorylated at serine 473), pAKT(T308) (phosphorylated at threonine 308) and for pS6RP(S235/236) (phosphorylated at serine 235/236) (commercially available from Cell Signaling Technology®, whose protocol was followed for the in-cell western assay, were diluted to the required concentration and added to the corresponding wells followed by overnight incubation at 4° C. Eu-labeled rabbit (PE) (Perkin-Elmer USA catalog #AD0106) secondary antibody was added and incubated for 2 h at room temperature. Delfia® enhancement solution (cat #1244-105, Perkin Elmer USA) was subsequently added to the plate before taking the reading at 615 nm with excitation wavelength of 340 nm, after which 0.5 μg/mL of Hoechst® 33258 dye (Catalog #86140-5, Sigma) was added to the plate and fluorescence emission was read at 460 nm with 355 nm excitation, to evaluate the correction factor. IC50 values were calculated using a sigmoidal dose-response curve fit in GraphPad Prism® v5 software.

Test [2] deals with PC3 cells. The test can be described thus: XTT assay for cell viability, PC3 cells. The format is cell-based, human. The settings on record: Homo sapiens, PC-3, cell viability. The method, boiled down: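 PC3 cells seeded at 1000 cells/well, grown 24 h, then exposed to serial dilutions of compound for 96 h. Viability read by XTT dye at 37° C, absorbance 465 nm. EC50 from sigmoidal dose-response fit.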
(In general: Tetrazolium assays rely on reduction of a dye to a coloured formazan, in cell work by metabolically active cells.)

Test [3] addresses T1, PI3Kα (wild-type), P110/P85α (Homo sapiens, UniProt P42336).
T1 construct: made in house; host or cells: SF9 insect cells
The experiment in a line: PI3 Kinase TR-FRET assay, PI3Kα (wild-type). Format: biochemical. The method, boiled down:
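TR-FRET read-out of PIP3 formation via biotin-PIP3 displacement (665/615 nm ratio) gave IC50 curves. Enzyme: 5 ng wild-type P110/P85α from Sf9 cells, 60 min RT with compound and PIP2 (MgCl2 40 mM, DTT 5 mM), then 30 min RT kinase reaction at 10 μM ATP and 10 μM PIP2.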
(In general: In TR-FRET formats the signal depends on donor and acceptor labels being close together.)

For test [4], the system named is pAKT(T308) (phosphorylated at threonine 308), PC3 cells. The experiment in a line: In-cell Western assay, pAKT(T308) in PC3 cells. The format is cell-based. The settings on record: Homo sapiens, PC-3, In-cell Western. Here is the method: as §1
In test [5] the test system is pS6RP(S235/236), PC3 cells. The test can be described thus: In-cell Western assay, pS6RP(S235/236) in PC3 cells. Format: cell-based, human. As to conditions: Homo sapiens, PC-3, In-cell Western. A digest of the protocol:
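Overnight-seeded PC3 cells were treated 2 h with serially diluted compound, then fixed and immunostained with phospho-specific primary antibodies and Eu-labelled secondary. Time-resolved Eu signal read at 615 nm (ex 340 nm), normalised by Hoechst 33258 staining (ex 355/em 460 nm); IC50 from sigmoidal dose-response fit.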

For test [6], the target named is T2, mTOR kinase (Homo sapiens, UniProt P42345).
T2 construct: purchased Millipore, USA
The test can be described thus: mTOR kinase TR-FRET assay. Format: biochemical. As to conditions: read-out: mTO R. The method, boiled down:
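TR-FRET read-out (340 nm excitation, 615/665 nm emission) of Thr389 phosphorylation of a ULight-labeled p70 S6K peptide (50 nM) by mTOR, 20 μM ATP, 60 min room temperature after 60 min compound preincubation. Buffer HEPES pH 7.5 with MnCl2, EGTA; IC50 by sigmoidal dose-response.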

T1 sequence (P42336 whole entry): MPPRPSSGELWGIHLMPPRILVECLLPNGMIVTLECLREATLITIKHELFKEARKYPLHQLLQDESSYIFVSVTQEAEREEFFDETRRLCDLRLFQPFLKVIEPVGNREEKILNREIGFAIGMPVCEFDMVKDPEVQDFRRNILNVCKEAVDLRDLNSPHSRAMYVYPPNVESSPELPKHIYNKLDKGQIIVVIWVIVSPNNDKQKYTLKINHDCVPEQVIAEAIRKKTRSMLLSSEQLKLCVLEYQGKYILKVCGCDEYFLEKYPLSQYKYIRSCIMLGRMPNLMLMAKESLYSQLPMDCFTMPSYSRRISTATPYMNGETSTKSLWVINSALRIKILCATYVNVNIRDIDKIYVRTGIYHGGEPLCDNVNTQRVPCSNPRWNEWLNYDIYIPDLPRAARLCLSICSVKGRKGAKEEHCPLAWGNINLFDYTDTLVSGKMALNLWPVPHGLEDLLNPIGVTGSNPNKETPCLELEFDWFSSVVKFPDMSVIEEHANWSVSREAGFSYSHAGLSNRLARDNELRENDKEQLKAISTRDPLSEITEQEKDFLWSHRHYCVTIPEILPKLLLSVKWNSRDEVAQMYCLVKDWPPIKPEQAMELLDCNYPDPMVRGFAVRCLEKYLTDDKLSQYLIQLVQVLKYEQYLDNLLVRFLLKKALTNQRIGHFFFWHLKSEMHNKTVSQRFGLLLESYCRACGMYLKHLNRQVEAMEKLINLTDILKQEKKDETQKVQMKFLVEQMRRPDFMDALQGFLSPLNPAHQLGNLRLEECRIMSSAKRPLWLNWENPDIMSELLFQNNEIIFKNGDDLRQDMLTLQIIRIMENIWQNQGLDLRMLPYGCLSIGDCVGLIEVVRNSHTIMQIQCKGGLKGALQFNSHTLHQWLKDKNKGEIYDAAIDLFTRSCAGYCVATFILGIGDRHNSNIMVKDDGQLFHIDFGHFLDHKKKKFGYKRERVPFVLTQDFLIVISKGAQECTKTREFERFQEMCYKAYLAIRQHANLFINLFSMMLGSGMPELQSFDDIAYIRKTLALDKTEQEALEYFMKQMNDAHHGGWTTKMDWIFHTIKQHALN
T1 sequence (P27986 whole entry partner): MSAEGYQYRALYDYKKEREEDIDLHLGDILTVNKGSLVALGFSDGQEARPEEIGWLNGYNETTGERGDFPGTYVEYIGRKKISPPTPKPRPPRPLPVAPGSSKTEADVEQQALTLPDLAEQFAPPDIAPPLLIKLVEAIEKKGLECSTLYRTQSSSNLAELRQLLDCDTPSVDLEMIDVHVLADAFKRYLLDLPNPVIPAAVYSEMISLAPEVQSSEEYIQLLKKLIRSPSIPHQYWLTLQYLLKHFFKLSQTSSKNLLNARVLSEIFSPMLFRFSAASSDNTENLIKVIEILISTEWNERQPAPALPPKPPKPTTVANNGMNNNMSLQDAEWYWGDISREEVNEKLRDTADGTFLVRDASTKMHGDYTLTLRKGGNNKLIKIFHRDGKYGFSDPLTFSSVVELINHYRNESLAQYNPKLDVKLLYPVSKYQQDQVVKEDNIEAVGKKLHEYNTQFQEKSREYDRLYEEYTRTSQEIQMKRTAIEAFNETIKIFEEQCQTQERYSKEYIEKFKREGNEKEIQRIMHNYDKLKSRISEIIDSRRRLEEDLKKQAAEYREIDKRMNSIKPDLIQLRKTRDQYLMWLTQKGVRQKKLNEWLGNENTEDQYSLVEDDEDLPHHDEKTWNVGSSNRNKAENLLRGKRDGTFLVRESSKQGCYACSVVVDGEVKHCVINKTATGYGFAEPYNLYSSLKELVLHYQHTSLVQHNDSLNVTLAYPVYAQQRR

`CN(C)C(=O)c1ccc(NC(=O)Nc2ccc(-c3nc(N4CCOCC4)c4ncc(-c5cnn(C)c5)cc4n3)cc2)cc1` [Example 42, N,N-dimethyl-4-(3-{4-[7-(1-methyl-1H-pyrazol-4-yl)-4-morpholin-4-yl-pyrido[3,2-d]pyrimidin-2-yl]-phenyl}-ureido)-benzamide]: the IC50 in test [1] was less than 100 nM; in test [2] it was less than 100 nM; in test [3], less than 50 nM; in test [4], 100 to 500 nM; in test [5] it was 100 to 500 nM; in test [6], less than 50 nM.
As for `CN(C)CCN(C)C(=O)c1ccc(NC(=O)Nc2ccc(-c3nc(N4CCOCC4)c4ccc(-c5cncnc5)cc4n3)cc2)cc1` [Example 44, N-(2-dimethylamino-ethyl)-N-methyl-4-{3-[4-(4-morpholin-4-yl-7-pyrimidin-5-yl-quinazolin-2-yl)-phenyl]-ureido}-benzamide], the IC50 in test [1] is less than 100 nM; in test [2], less than 100 nM; in test [3] it was less than 50 nM; in test [4] it was less than 100 nM; in test [5], less than 100 nM; in test [6], less than 50 nM.
On to `CN(C)C(=O)c1ccc(NC(=O)Nc2ccc(-c3nc(N4CCOCC4)c4ncc(-c5cccnc5)cc4n3)cc2)cc1` [Example 46, N,N-dimethyl-4-{3-[4-(4-morpholin-4-yl-7-pyridin-3-yl-pyrido[3,2-d]pyrimidin-2-yl)-phenyl]-ureido}-benzamide], for which the IC50 in test [1] is less than 100 nM; in test [2], less than 100 nM; in test [3], less than 50 nM; in test [4], 100 to 500 nM; in test [5], less than 100 nM; in test [6], less than 50 nM.
As for `CC(=O)Nc1cccc(-c2ccc3c(N4CCOCC4)nc(-c4ccc(NC(=O)Nc5ccc(C(=O)N(C)C)cc5)cc4)nc3c2)c1` [Example 49, 4-(3-{4-[7-(3-acetylamino-phenyl)-4-morpholin-4-yl-quinazolin-2-yl]-phenyl}-ureido)-N,N-dimethyl-benzamide], the IC50 in test [1] was 100 to 500 nM; in test [2], less than 100 nM; in test [3], less than 50 nM; in test [4] it was 100 to 500 nM; in test [5] it was less than 100 nM; in test [6] it was less than 50 nM.

The record behind these values is patent US9115092B2, “Substituted quinazoline and pyrido-pyrimidine derivatives” (Asana Biosciences, LLC, priority 2010, dated 2015).
